One assay has as its system KCC3. Briefly: Cellular inhibition of KCC3 phosphorylation (pThr991, pThr1048). The assay is classed as cell-based. The conditions noted are these: n = 3, — = no inhibition. From the text:
(§1) 8. Cellular Activity Profile of Inhibitors with the Salicyclic Amide
(§2) A list of the compounds evaluated for their ability to inhibit phosphorylation of SPAK/NKCC1/KCC3 activity is illustrated in Table 1 below.

A further assay deals with BCAS mice. Briefly: Ex-vivo MRI DTI analysis of white matter lesion in BCAS mice. More on the design: species or system C57BL/6J mice. The conditions noted are these: 4 wks post-BCAS, vs Veh-control. From the text:
Clinically, most patients with intracranial atherosclerotic stenosis suffer from permanent stenosis without occlusion. Therefore, to mimic clinical atherosclerotic stenosis with permanent carotid artery (CCA) hypoperfusion, a modified BCAS model was adapted by ligating the CCA guided with a 30 gauge needle (0.31 mm diameter) in the right CCA and a 33 gauge needle (0.21 mm diameter) in the left CCA with a 4-0 silk suture. […] Next, changes of total NKCC1 (tNKCC1) protein expression were surveyed in different brain regions at 2 and 4 wks post-surgery by immunofluorescence staining (IF). […] Therefore, in the rest of the study, the investigation was focused on its association to white matter GFAP^+ astrogliosis and lesion of CC and external capsul (EC) tracks. […] However, by 2 wks post-BCAS surgery, tNKCC1 immunofluorescence intensity in the CC tracks was increased by ˜3 folds (p<0.05), and further elevated to ˜6 folds by 4 wks (p<0.05, arrowhead). Data are mean±SEM, n=4, *p<0.05, **p<0.01. […] The upregulation of tNKCC1 and GFAP protein expression in the CC is correlated, with a Pearson's correlation coefficient of r=0.9 (p<0.001). […] In contrast, no elevated tNKCC1 protein was detected either in Iba1^+ microglia/macrophages or in Olig2+ oligodendrocytes (OL) at 4 wks post-BCAS surgery (FIG. 1D). Without wishing to be bound by theory, these findings indicate that upregulation of NKCC1 expression and activity in reactive astrocytes may play a critical role in white matter inflammation, OL death, and demyelination after BCAS. Next, whether administration of SPAK inhibitor ZT-1a reduces WML and improves cognitive functions was examined. Starting at 14 days after BCAS surgery in mice (male), either vehicle DMSO (Veh, 2 ml/kg) or ZT-1a (5 mg/kg, every 72 h, i.p) was administered every 3 days, until they were sacrificed at day 35 post-BCAS (FIG. 3A). […] Motor functions are similar in all groups and average swimming speeds were not different in the Sham-, Veh- and ZT-1a-treated mice. Data are mean±SEM, n=6 (Sham and ZT-1a) or 5 (Veh), *p<0.01 vs. sham, *p<0.05 vs. Veh. After completion of the neurological function tests in the Veh-control and ZT-1a-treated BCAS cohort mice (as shown in FIG. 3A and FIG. 3B), ex-vivo brains were harvested for MRI DTI (diffusion tensor imaging) analysis of WML at 4 wks post-BCAS detected by DTI. The fractional anisotropy (FA), radial diffusivity (RD), and mean diffusivity (MD) of the CC and EC tracks were analyzed. Representative images of the DEC maps in FIG. 4A show severe loss of axonal fibers (arrowheads) in the CC and left EC of the Veh-control brains. […] These observations are consistent with changes of FA, RD, and MD values (FIG. 4B). […] Then MBP expression levels were measured in these brains by immunostaining. […]

For the next assay, the target named is SPAK (Homo sapiens, UniProt Q9UEW8). Put plainly: Cellular inhibition of SPAK phosphorylation (pSer373). The assay is classed as cell-based. Particulars: 50% inhibition of phosphorylation, n = 3, — = no inhibition.
Excerpt: as §1, §2

Structures are written as SMILES. Where two headings read alike, the source gives them in different places.

With `Cc1cc(C(C#N)c2ccc(Cl)cc2)c(Cl)cc1NC(=O)c1cc(Cl)ccc1O` (stereo not drawn) [1a (ZT-1a)], the IC50 worked out at 3 µM with KCC3 (Hypotonic conditions, read-out: KCC3 pThr1048 (μM) hypo); 3 µM in the assay with KCC3 (Isotonic conditions, read-out: KCC3 pThr991 (μM) Iso); 1 µM in the assay on KCC3 (Isotonic conditions, read-out: KCC3 pThr1048 (μM) Iso); 3 µM at SPAK (Hypotonic conditions, read-out: SPAK pSer373 (μM) hypo); 1 µM at SPAK (Isotonic conditions, read-out: SPAK pSer373 (μM) Iso). In the assay on BCAS mice (5 mg/kg i.p. every 72 h, both hemispheres), the “integrity of the CC and EC tracks (DEC maps)” value is “better-preserved integrity”. In the assay with BCAS mice (p<0.05), the “fractional anisotropy (FA) values” is “significantly higher”. For the same molecule, in the assay on BCAS mice (p<0.05), the “mean diffusivity (MD) values” was “lower”. Moreover, the “radial diffusivity (RD) values” in the assay on BCAS mice (p<0.05) was “lower”.

Source of the values: patent US11925611B2, “Use of ZT-1A and analogs thereof to prevent and/or treat neurodegenerative and neurocognitive disorders” (United States Government as Represented by the Department …, priority 2021, dated 2024).
